This note sets out measurements from patent US20110123466A1, “PHARMACEUTICAL AND/OR COSMETIC COMPOSITION CONTAINING AN ACTIVE PRINCIPLE ACTIVATOR OF CYTOCHROME C” (SOCIETE D'EXTRACTION DES PRINCIPES ACTIFS S.A (ISP …, priority 2007, published 2011).

Ends that are not written are not given here.

In one assay the test system is cytochrome C. As to the kind of experiment: Expression of cytochrome C by immunotransfer (Western Blot). It is filed as cell-based. The settings on record: human dermal fibroblasts; 1% solution of a 50-ppm mother-solution; 72 hours. As to the method:
The aim of this study was to determine the effect of the SEQ ID No. 2 peptide on the expression of cytochrome C. For this, the quantity of cytochrome C was evaluated by the immunotransfer (or Western Blot) technique.
Protocol: Human dermal fibroblasts were treated with a 1% solution of a 50-ppm SEQ ID No. 2 peptide mother-solution for 72 hours. The cells were then lysed and homogenized by sonication, then centrifuged for 10 minutes at 1000 g. The samples, standardized for their protein concentration (BCA measurement kit, Pierce) were subjected to electrophoresis on 4-12% bis-tris gel (Invitrogen). After electro-transfer, the membranes were incubated overnight with an anticytochrome C antibody, diluted to 1/500 (mouse monoclonal anti-cytochrome C, Tebu). A secondary antibody, coupled to the peroxidase and diluted to 1/5000 was then used (peroxidase conjugated F(ab′)2, goat antimouse, Immunotech). The chemiluminescent signal was then quantified using the Supersignal West Femto Trial kit and read in a reading chamber (MultiImage Light Cabinet, Immunotech Corporation).
Background: Immunoblotting shows a protein as a band on a membrane.

The subject of the next assay is Dermal fibroblasts. As to the kind of experiment: Synthesis of intracellular ATP (ATP Bioluminescence Assay Kit HS II). Format: cell-based. The note with it: 1% solution of a 50 ppm peptide solution, compared to untreated cells. As to the method:
Protocol: This study was conducted using an ATP Bioluminescence Assay Kit HS II (Roche Applied Science). Dermal fibroblasts were treated with a 1% solution of a 50 ppm solution containing the SEQ ID No. 2 peptide, representative of the peptide family according to the invention, for a period of 1 to 3 hours. At the end of incubation, the tubes were rinsed with 2 ml of cold PBS before adding 250 μl of a lysis buffer provided in the kit. The cells of each tubes were then scraped up and collected in 14-ml tubes. Each tube was rinsed with 2×500 μl of cold PBS and the whole was collected again in the respective tubes. […] The ATP measurement was performed on these samples: 50 μl of this dilution was placed in a Luma cuvette and […]. After 10 seconds, the luminescence reading was begun. The values were standardized relative to the quantity of proteins for each sample. The measurements were made using the Biocounter M2010A Luma®/3M equipment.

The subject of another assay is cytochrome oxidase. As to the kind of experiment: Enzymatic activity of cytochrome oxidase (Cytocox 1 kit) in treated fibroblasts. Format: cell-based. The settings on record: normal human fibroblasts, 1% solution of a 50-ppm solution, compared with untreated cells. The protocol:
The aim of this study was to determine the effect of the SEQ ID No. 2 peptide on mitochondrial activity. For this, the total enzymatic (mitochondrial) activity of cytochrome oxidase was measured.
Protocol: Normal human fibroblasts were treated with a 1% solution of a 50-ppm solution containing the SEQ ID No. 2 peptide, representative of the peptide family according to the invention, for 3 hours and 24 hours. The cells were collected, rinsed, and then lysed by sonication. A first centrifuging was performed to eliminate the principal cellular debris, and the supernatant was then centrifuged again at 10,000 g for 10 minutes. The enzymatic activity was measured in the supernatant and/or in the second residue, by a biochemical method using the Cytocox 1 kit (Sigma-Aldrich), then standardized for protein content (measured with the BCA kit, Pierce).

Assay [1] deals with dermal fibroblast mitochondria. As to the kind of experiment: Mitochondrial membrane potential, JC-1 marking, with or without H2O2 or UVB stress. Format: cell-based, human. As to the method:
The aim of this study was to determine the protective effect of the SEQ ID No. 2 peptide with respect to dermal fibroblast mitochondria subjected to an oxidative stress caused by oxygenated water (H2O2) or UVB irradiation. A marker for the membrane potential of mitochondria (JC-1) was used for this. JC-1 is a marker that emits different fluorescences depending on the level of polarization of the mitochondrial membrane.
Protocol: Human dermal fibroblasts were treated with a 1% solution of a 50-ppm SEQ ID No. 2 peptide mother-solution for 96 hours and then subjected to an oxidative stress caused by 2 mM of H2O2 for 30 min. or to UVB irradiation at 50 mJ/cm^2. Controls not treated with the peptide or H2O2 or not irradiated were performed under the same conditions. At the end of the experiment, the cells were washed, fixed, and subjected to marking with a 0.2 μg/ml solution of JC-1 (Molecular Probes®) in order to disclose the membrane potential of the mitochondria.

For “Tyr-Leu-Lys-Lys-Ala-NH2 (YLKKA-NH2) [SEQ ID No. 2]”, in the assay on cytochrome C, the “expression of cytochrome C” value is on record as “clear increase”. The figures for the “increase in the amount of intracellular ATP” value with Dermal fibroblasts (after 3 hours) and in the assay on Dermal fibroblasts (after one hour) were 27% and 41%, respectively. Moreover, the “increase in enzymatic activity of cytochrome oxidase” value in the assay on cytochrome oxidase (24 hours after application) came out at 750%; in the assay with cytochrome oxidase (after 3 hours) it was 150%. Further, in assay [1] (peptide for 96 hours, then 2 mM H2O2 for 30 min or UVB 50 mJ/cm^2), the “mitochondrial membrane potential (JC-1 red fluorescence) under stress” value is “more marked red fluorescence”. Also, the “mitochondrial membrane potential (JC-1 red fluorescence)” value in assay [1] (unstressed human dermal fibroblasts, 1% solution of a 50-ppm mother-solution, 96 hours) is reported as “elevated membrane potential, greater than in the control cells”.
